# Measurements reported in patent publication US5112856A, “Therapeutic treatment of intestinal inflammation by administration of 3,4-dihydro-2H-1-benzopyran derivatives” (Hoffmann-La Roche Inc., priority 1990, dated 1992).
# How the values were obtained:
# [1] = system: antibiotic-induced colitis; assay: Antibiotic (clindamycin)-induced colitis in hamsters, in vivo; set-up: species or system Male Syrian hamsters (LUG); settings: for activity in clindamycin-induced colitis: oral
# Method: Male Syrian hamsters (LUG), weighing 80 to 120 g, were each given a single dose of 175 mg/kg of clindamycin-phosphate or of clindamycin-hydrochlorideintraperitoneally, to induce colitis. Approximately seven hours after injection, the animals were given the test compound orally or intraperitoneally and the therapy was continued twice a day for a period of four more days. For oral administration, the […] was suspended in water or dissolved in dimethylsulfoxide and delivered to the animals by gavage using an oral intubating needle. The effect of the therapy was measured by use of the Hazard Ratio, which is the ratio of the mortality of the animals treated with the test inhibitor compound contained in a vehicle to the mortality of the animals treated with the vehicle containing none of the test inhibitor compound. The mortality was determined for the test inhibitor compound-treated groups and for the vehicle-treated groups, respectively, twice daily, and was evaluated by comparing the survival curves of each group. The Kaplan-Meier estimate of the survival curve was calculated for each group and the Mantel-Cox (logrank) test was used to compare the survival curve of each test inhibitor compound-treated (therapy) group to that of the corresponding vehicle control group. […]
# guinea pig colon = assay: Carrageenan-induced colitis in guinea pigs, in vivo (water transport in distal colon); set-up: species or system Male/female guinea pigs (Hartley); settings: oral
# From the text: The guinea pig carrageenan-induced colitis biossay has been described by A. B. Onderdonk in Inflammatory Bowel Diseases, Martinus Nijhoff Publ., Boston, Mass., pages 126-134 (1982), and in Human Intestinal Microflora in Health and Disease (D. J. Hentger, ed.), Academic Press, New York, 1983, pages 447-479. The polysaccharide iotacarrageenan, derived from red seaweed, produces a colitis in guinea pigs that resembles ulcerative colitis in humans. Male/female guinea pigs (Hartley), weighing 400 to 650 g, were given a 3% solution of degraded carrageenan in their drinking water on a daily basis. After about 7 days, the animals began to develop diarrhea, ceased to gain weight and became lethargic. After the animals received carrageenan in this manner for 14 days, the diarrhea was quantified by measuring the water transport in the distal colon by single pass perfusion using 14C-polyethylene glycol 4000 (PEG 4000) as a marker. Control animals were given an aqueous drinking solution containing 3% mannitol in place of the carrageenan. Simultaneously, randomly selected animals from each of these two groups were treated orally with the test inhibitor compound, twice daily. […]
# LTB4 = assay: Rat colon mucosa in vitro, short-circuit current: LTB4-induced electrolyte secretion; settings: six animals
# From the text: (§1) The rat colon mucosa bioassay system is based on the measurement of changes in salt transport across the animal tissue due to absorption or secretion, using the standard short-circuit current technique described by Ussing, et al., Acta Physiol. Scand. 23: 110-127 (1951). Diarrhea is the most common symptom of gastrointestinal inflammation and is present in all types of inflammatory bowel disease. Pantera, et al., Ital. J. Gastroenterol. 13: 24-27 (1981); Sales, et al., Arch. Int. Med. 143: 294-299 (1983); Hodgson, Br. J. Clin. Pharmac. 14: 159-270 (1982). Diarrhea results from decreases in the salt absorption or increases in the salt secretion in the bowel and can be quantified in vitro by the above mentioned method of Ussing et al. In particular, a one-cm segment of colon is removed from animals weighing 200 to 250 g, exposed in vitro to leukotrienes or to bradykinin, which are inducers of salt secretion, and the resulting change in the net salt transport with and without the presence of 6-acetyl-7-[5-(4-acetyl-3 -hydroxy-2-propylphenoxy) pentyloxy]-3,4-dihydro-2H-1-benzopyran-2-carboxylic acid as an inhibitor is measured. Tissues were mounted in pairs in Ussing chambers and short-circuited with automatic voltage clamps (from the University of Iowa Bioengineering Department). A 15-minute period of equilibrium was allowed for the preparation to reach steady state. […]
# LTC4 = assay: Rat colon mucosa in vitro, short-circuit current: LTC4-induced electrolyte secretion; settings: six animals
# From the text: as §1
# LTD4 = assay: Rat colon mucosa in vitro, short-circuit current: LTD4-induced electrolyte secretion; settings: six animals
# From the text: as §1
# LTE4 = assay: Rat colon mucosa in vitro, short-circuit current: LTE4-induced electrolyte secretion; settings: six animals
# From the text: as §1
# [2] = system: myeloperoxidase of the rat colon; assay: Acetic acid-induced colitis in rats, in vivo (colonic myeloperoxidase); set-up: species or system Male rats (Sprague-Dawley); settings: oral
# From the text: The rat acetic acid-induced colitis biossay has been described by J. E. Krawisz, et al. in Amer. J. Proc. Gastro. Col. Rec. Surg. 31: 11-18 (1980), and by P. Sharon and W. F. Stenson in Gastroenterology 88: 55-63 (1985) and 86: 453-460 (1984). Acetic acid-induced colitis is characterized by the movement of inflammatory cells into the colon, with the number of such cells in the mucosa being measured by the activity of myeloperoxidase, a marker enzyme for these cells. Positive desirable activity is indicated by a reduction in the high levels of myeloperoxidase caused by acetic acid. Male rats (Sprague-Dawley), weighing 150 to 300 g, were pretreated twice daily for two days with either the vehicle (water, or dimethylsulfoxide) or the test inhibitor compound suspended in water or dissolved in dimethylsulfoxide and orally administered. […] Twenty four hours after the acetic acid treatment, the animals were sacrificed, the colonic mucosa was surgically removed and homogenized in an aqueous buffer at pH 6 with a Tissumizer or similar device, and myeloperoxidase was measured in the homogenate using o-phenylenediamine as a chromagen, as described by A. Voller, D. E. Bidwell and A. Bartlett in The Enzyme Linked Immunosorbent Assay (ELISA), Zoological Soc., London, 1979, pages 29-30. […]
# [3] = 10 mg/kg oral, in 0.15 ml water, >1.0 = prolongs survival vs. vehicle
structure (smiles),measurement,setting,value
"CCCc1c(OCCCOc2ccc3c(=O)cc(CCC(=O)O)oc3c2CCC)ccc(C(C)=O)c1O [Comparison 2, 7-[3-(4-acetyl-3-hydroxy-2-propylphenoxy)propoxy]-4-oxo-8-propyl-4H-1-benzopyran-2-propanoic acid, reference compound]",Hazard Ratio,"[1]; 13 mg/kg oral, in 0.15 ml water, >1.0 = prolongs survival vs. vehicle",1.68
same,activity in clindamycin-induced colitis,[1]; 10 mg/kg,inactive
"O=C(O)c1cc(/N=N/c2ccc(S(=O)(=O)Nc3ccccn3)cc2)ccc1O [sulfasalazine, reference compound]",water transport in the colon,"guinea pig colon; 100 mg/kg, carrageenan-diseased animals (FIG. 4)",restored the water transport in the colon of the diseased animals from a net secretory level to a level about that of the control animals
"CCCc1c(OCC(O)COc2ccc3c(=O)cc(C(=O)O)oc3c2CCC)ccc(C(C)=O)c1O (stereo not drawn) [Comparison 1, 7-[3-(4-acetyl-3-hydroxy-2-propylphenoxy)-2-hydroxypropoxy]-4-oxo-8-propyl-4H-1-benzopyran-2-carboxylic acid, reference compound]",Hazard Ratio,[1]; [3],1.42
same,Hazard Ratio,"[1]; ip, 10 mg/kg",2.02
same,activity in clindamycin-induced colitis,[1]; 10 mg/kg,inactive
"CCCc1c(OCCCCCOc2cc3c(cc2C(C)=O)CCC(C(=O)O)O3)ccc(C(C)=O)c1O (racemic) [6-acetyl-7-[5-(4-acetyl-3-hydroxy-2-propylphenoxy)pentyloxy]-3,4-dihydro-2H-1-benzopyran-2-carboxylic acid]","% Inhibition Against Leukotrienes, LTB4",LTB4; 1 μM inhibitor,44.4 ± 13.1%
same,"% Inhibition Against Leukotrienes, LTB4",LTB4; 10 μM inhibitor,69.6 ± 11.9%
same,"% Inhibition Against Leukotrienes, LTC4",LTC4; 1 μM inhibitor,9.5 ± 19.2%
same,"% Inhibition Against Leukotrienes, LTC4",LTC4; 10 μM inhibitor,57.1 ± 19.7%
same,"% Inhibition Against Leukotrienes, LTD4",LTD4; 1 μM inhibitor,30.8 ± 15.4%
same,"% Inhibition Against Leukotrienes, LTD4",LTD4; 10 μM inhibitor,62.4 ± 10.0%
same,"% Inhibition Against Leukotrienes, LTE4",LTE4; 1 μM inhibitor,29.8 ± 15.0%
same,"% Inhibition Against Leukotrienes, LTE4",LTE4; 10 μM inhibitor,44.2 ± 9.8%
same,Hazard Ratio,[1]; [3],3.80
same,Hazard Ratio,"[1]; 60 mg/kg intraperitoneal, in 0.075 ml PEG400, >1.0 = prolongs survival vs. vehicle",4.77
same,Hazard Ratio,"[1]; 60 mg/kg oral, in 0.15 ml water, >1.0 = prolongs survival vs. vehicle",12.0
same,Hazard Ratio,"[1]; 100 mg/kg oral, in 0.15 ml water, >1.0 = prolongs survival vs. vehicle",64.2
same,"edema, hemorrhaging, congestion, necrosis, focal erosions, inflammatory cell infiltration of cecum (and colon)",[1]; 60 or 100 mg/kg,In most cases these effects were reduced or abolished
same,diarrhea,[1]; clindamycin-treated hamsters,reduced the diarrhea
same,histopathology of the cecum and colon,[1]; clindamycin-treated hamsters,substantially benefited the histopathology of the cecum and colon
same,survival of clindamycin-treated animals,[1]; clindamycin-treated hamsters,prolonging the survival
same,Hazard Ratio,"[1]; ip, 10 mg/kg",2.87
same,activity in clindamycin-induced colitis,[1]; doses ranging from 10 to 100 mg/kg,active
same,activity in reducing myeloperoxidase of the rat colon,[2]; 30 and 90 mg/kg (FIG. 3),active
same,water transport rate in the colon,"guinea pig colon; 10 and 30 mg/kg, carrageenan-diseased animals (FIG. 5)",water transport rates about equal to that of the control animals
"O=C1CCN(c2ccccc2)N1 [phenidone, reference compound]",activity in reducing myeloperoxidase of the rat colon,[2]; 100 and 200 mg/kg (FIG. 2),active
